Test results: patent US12173042B2, “Methods of treating cancers with CT45 targeted therapies” (The University of Chicago, priority 2016, dated 2024)

Tests used:
[1] = test system: interaction of CT45 with heterochromatin-associated PP4; assay: ChIP-MS of V5-tagged CT45 ± carboplatin; type: cell-based, human; conditions: OVCAR5-V5-CT45 ± carboplatin
Experimental: For chromatin immunoprecipitation coupled to mass spectrometry (ChIP-MS), freshly harvested cells were crosslinked with 1% formaldehyde for 10 min in PBS. Cells were lysed in IP Buffer (50 mM Tris-HCl (pH 8), 100 mM NaCl, 5 mM EDTA (pH 8), 0.3% SDS, 1.7% Triton-X-100, supplemented with EDTA-free protease inhibitor cocktail (Roche) and phosphatase inhibitor cocktail (Roche)) and chromatin sonicated to an average size of 200-400 bp. 1 mg of total cell lysate was incubated with 3 μg of respective antibody overnight at 4° C. under constant rotation. The next day, 30 μl of protein G-coupled agarose beads (Cell signaling technology) were added and incubated for 3 h at 4° C. under constant rotation. Antibody-bait complexes were then washed three times with low salt wash buffer (50 mM HEPES pH 7.5, 140 mM NaCl, 1% Triton), once with high salt wash buffer (50 mM HEPES pH 7.5, 500 mM NaCl, 1% Triton) and twice with TBS. Elution was carried out by a partial on-bead digest as recently described. Peptides were finally desalted with C18 StageTips prior to MS analysis.

[2] = test system: chromatin enrichment of KAP-1 or PP4; assay: Chromatin fractionation; type: cell-based, human; conditions: OVCAR5-V5-CT45 cell line
Experimental: Chromatin fractionation was performed as described previously. Soluble proteins and proteins bound to open or compacted chromatin were separated by stepwise increasing the salt and nuclease (MNase) treatment. 1E7 cells were washed with PBS and 1 ml low salt buffer (LSB: 10 mM HEPES [pH 7.4], 25 mM KCl, 10 mM NaCl, 1 mM MgCl2, 0.1 mM EDTA). Pelleted cells were then resuspended in six times the packed cell volume (PCV) of LSB supplemented with protease and phosphatase inhibitor cocktail (Roche). After snap freezing in liquid nitrogen, samples were quickly thawed and immediately centrifuged (10 min at 10,000 rpm). The pellet was resuspended in a volume of high-salt buffer (HSB: 50 mM Tris-HCl [pH 8.0], 5% [v/v] glycerol, 1 mM EDTA, 10 mM MgCl2, 400 mM KCl, supplemented with protease and phosphatase inhibitor cocktail), equal to 0.25 V of LSB. After centrifugation at 10,000 rpm (supernatant=nucleoplasmic fraction), the pellet was resuspended in a volume nuclease buffer containing 10 U/ml MNase (NEB) and incubated at 37° C. for 10 min and centrifuged for 5 min at 10,000 rpm (supernatant=chromatin fraction 1). The pellet was then resuspended in the same volume of nuclease buffer containing 100 U/ml MNase and incubated another 45 min at 37° C. before an equal V of solubilization buffer (nuclease buffer+2% [v/v] NP-40, 2% [v/v] Triton X-100, 600 mM NaCl) was added. […]

In the case of `N.N.O=C([O-])C1(C(=O)[O-])CCC1.[Pt+2]` [carboplatin], the “interaction of CT45 with heterochromatin-associated PP4” value [1] is reported as “not affected” and the “chromatin enrichment of KAP-1 or PP4” value [2] is reported as “did not find”.
